The values below come from US7795290B2 (Genentech, Inc., priority 2004, dated 2010).

Holding throughout (experiment): HTS ATP-utilizing enzyme assay, off-chip mobility-shift (Caliper HTS 250)
What all share (format): biochemical
Holding throughout (conditions): kinase named = inhibitory activity/selectivity; test compound 10 μM; active = greater than three-sigma from mean

In one assay the target is T1, AURORA-A (Homo sapiens, UniProt O14965).
T1 sequence (O14965 1-403): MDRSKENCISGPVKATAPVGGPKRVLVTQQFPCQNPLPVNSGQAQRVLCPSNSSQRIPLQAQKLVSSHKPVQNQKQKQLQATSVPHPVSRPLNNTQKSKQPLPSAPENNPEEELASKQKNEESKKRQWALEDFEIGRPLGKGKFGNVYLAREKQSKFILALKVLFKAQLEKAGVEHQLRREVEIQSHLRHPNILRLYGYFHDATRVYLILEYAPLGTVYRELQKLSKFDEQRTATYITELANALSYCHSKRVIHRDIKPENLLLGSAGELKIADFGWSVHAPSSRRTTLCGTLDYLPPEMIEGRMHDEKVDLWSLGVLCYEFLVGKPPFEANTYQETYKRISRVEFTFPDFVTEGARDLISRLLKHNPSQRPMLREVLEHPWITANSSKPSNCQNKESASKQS
An excerpt:
(§1) The following procedures describe the reagent and plate preparation for a HTS of an ATP-utilizing enzyme, such as a protein kinase, run in an off-chip mobility-shift assay format. The following provides an HTS protocol for running a protein kinase HTS screen on a Caliper HTS 250 microfluidics system. The following parameters are dependent on the protein kinase used and can be determined by one skilled in the art as part of a typical assay development process. For example, the peptide substrate used can be identified from the current literature, by screening a peptide library of potential protein kinase substrates, or by other applicable means accepted in the field.
(§2) Assays to determine the kinase inhibitory activity of chemical entities of the present disclosure were performed using a Caliper HTS 250 microfluidics device, Greiner U-bottom assay plates, a Multidrop for transfer of reagents, and Biomek FX (AMNCBM03) software. Initially, 2.4 μL of a 1 mM solution of a test compound in 100% DMSO was added to a well of the Greiner U-bottom plate. A single Greiner U-bottom plate having 24×16 wells could include multiple test compounds. Next, 40 μL of 1.06× Assay Buffer was added to each well of the assay plate. Using the Biomek FX, 10 μL of 0.5 M EDTA was added by the span-8 to wells, indicated as 100% Control and 2.4 μL of 100% DMSO was added by the span-8 to wells, indicated as 0% Control. Using the Multidrop, 10 μL of 2.5× Enzyme Buffer, followed by 10 μL of 2.5× Substrate Buffer was added to each well of the assay plate. The total reaction volume in each well was 25 μL, and the concentration of the test compound was 10 μM. The assay plate was incubated for 2.5 hrs at 20° C. to 22° C. After the incubation period, using the Multidrop, 45 μL of 1.55× Termination Buffer was added to each well of the assay plate to stop the reaction. The inhibition of the ATP-utilizing enzyme, such as a particular protein kinase, was determined by measuring the ratio of the peptide substrate to phosphorylated product for each well of the assay plate using the Caliper HTS 250 system.
(§3) The use of three-sigma statistical limits represents a conservative method for declaring potential hits among targets. The three-sigma activity, as well as the mean population activity, can be different for each target enzyme. This method has an expected false positive rate, from an in-control measurement process, of […].
(§4) Each chemical entity listed in Table 2 was tested for protein kinase inhibitory activity according to the biological assays and definitions of protein kinase inhibitory activity as described herein. For each exemplary compound listed in Table 2, the inhibitory activity for at least one protein kinase according to the biological assays and definitions of protein kinase inhibitory activity as described herein is indicated.

The next assay addresses GSK-3-α (Homo sapiens, UniProt P49840).
Text: as §1, §2, §3, §4

For another assay, the target named is CHEK2 (Homo sapiens, UniProt O96017).
Text: as §1, §2, §3, §4

The next assay concerns the target MAPKAPK-2 (Homo sapiens, UniProt P49137).
Text: as §1, §2, §3, §4

The target in another assay is T2, AKT1 (Homo sapiens, UniProt P31749).
T2 construct: purchased Upstate 14-276
In a few lines: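 AKT1 activity was measured by off-chip mobility shift (Caliper HTS 250) as the ratio of peptide substrate to phosphorylated product. Test compound was at 10 μM, with 2.5 h incubation at 20–22° C. EDTA wells served as 100% control and DMSO wells as 0%. Hits were called at three-sigma limits.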

In the next assay the target is CDK2/cyclin E (Homo sapiens, UniProt P24941).
Text: as §1, §2, §3, §4

In another assay the target is INSR (Homo sapiens, UniProt P06213).
Text: as §1, §2, §3, §4

In the next assay the target is T3, DYRK2 (Homo sapiens, UniProt Q92630).
T3 sequence (Q92630 1-601): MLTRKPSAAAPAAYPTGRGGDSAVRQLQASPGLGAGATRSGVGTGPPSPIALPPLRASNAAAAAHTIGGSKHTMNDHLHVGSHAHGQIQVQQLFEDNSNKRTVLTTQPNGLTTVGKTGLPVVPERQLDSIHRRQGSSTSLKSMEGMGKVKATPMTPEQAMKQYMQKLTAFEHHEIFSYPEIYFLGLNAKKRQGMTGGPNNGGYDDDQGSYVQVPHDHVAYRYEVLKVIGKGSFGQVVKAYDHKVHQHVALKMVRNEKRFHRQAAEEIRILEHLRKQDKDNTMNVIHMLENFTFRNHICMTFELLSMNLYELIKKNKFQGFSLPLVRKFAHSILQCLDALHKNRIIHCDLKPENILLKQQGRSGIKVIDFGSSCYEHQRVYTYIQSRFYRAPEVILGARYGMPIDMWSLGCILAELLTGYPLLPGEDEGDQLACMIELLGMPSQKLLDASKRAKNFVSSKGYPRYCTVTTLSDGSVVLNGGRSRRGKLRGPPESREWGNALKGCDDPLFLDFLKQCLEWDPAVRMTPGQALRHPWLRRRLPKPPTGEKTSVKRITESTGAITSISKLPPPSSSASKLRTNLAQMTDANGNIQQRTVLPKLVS
Text: as §1, §2, §3, §4

In a further assay the target is KIT (Homo sapiens, UniProt P10721).
Text: as §1, §2, §3, §4

For the next assay, the target named is T4, ZAP70 (Homo sapiens, UniProt P43403).
T4 sequence (P43403 1-619): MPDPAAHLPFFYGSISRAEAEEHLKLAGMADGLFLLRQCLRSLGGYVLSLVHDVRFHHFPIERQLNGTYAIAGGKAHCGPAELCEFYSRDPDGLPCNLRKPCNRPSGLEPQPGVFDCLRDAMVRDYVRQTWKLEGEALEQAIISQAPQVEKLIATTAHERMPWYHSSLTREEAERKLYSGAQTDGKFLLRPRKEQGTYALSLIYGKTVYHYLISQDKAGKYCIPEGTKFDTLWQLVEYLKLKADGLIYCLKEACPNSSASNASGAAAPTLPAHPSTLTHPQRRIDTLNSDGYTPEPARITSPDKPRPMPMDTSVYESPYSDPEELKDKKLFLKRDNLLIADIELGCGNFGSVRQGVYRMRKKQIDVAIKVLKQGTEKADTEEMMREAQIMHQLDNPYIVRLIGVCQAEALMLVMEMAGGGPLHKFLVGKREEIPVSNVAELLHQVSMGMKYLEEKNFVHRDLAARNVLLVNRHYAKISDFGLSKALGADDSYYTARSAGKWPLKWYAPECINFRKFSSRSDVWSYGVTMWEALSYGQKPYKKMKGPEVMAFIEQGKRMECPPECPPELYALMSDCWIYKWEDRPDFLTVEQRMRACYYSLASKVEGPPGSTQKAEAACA
Text: as §1, §2, §3, §4

The target in another assay is T5, FLT-3 (Homo sapiens, UniProt P36888).
T5 sequence (P36888 27-993): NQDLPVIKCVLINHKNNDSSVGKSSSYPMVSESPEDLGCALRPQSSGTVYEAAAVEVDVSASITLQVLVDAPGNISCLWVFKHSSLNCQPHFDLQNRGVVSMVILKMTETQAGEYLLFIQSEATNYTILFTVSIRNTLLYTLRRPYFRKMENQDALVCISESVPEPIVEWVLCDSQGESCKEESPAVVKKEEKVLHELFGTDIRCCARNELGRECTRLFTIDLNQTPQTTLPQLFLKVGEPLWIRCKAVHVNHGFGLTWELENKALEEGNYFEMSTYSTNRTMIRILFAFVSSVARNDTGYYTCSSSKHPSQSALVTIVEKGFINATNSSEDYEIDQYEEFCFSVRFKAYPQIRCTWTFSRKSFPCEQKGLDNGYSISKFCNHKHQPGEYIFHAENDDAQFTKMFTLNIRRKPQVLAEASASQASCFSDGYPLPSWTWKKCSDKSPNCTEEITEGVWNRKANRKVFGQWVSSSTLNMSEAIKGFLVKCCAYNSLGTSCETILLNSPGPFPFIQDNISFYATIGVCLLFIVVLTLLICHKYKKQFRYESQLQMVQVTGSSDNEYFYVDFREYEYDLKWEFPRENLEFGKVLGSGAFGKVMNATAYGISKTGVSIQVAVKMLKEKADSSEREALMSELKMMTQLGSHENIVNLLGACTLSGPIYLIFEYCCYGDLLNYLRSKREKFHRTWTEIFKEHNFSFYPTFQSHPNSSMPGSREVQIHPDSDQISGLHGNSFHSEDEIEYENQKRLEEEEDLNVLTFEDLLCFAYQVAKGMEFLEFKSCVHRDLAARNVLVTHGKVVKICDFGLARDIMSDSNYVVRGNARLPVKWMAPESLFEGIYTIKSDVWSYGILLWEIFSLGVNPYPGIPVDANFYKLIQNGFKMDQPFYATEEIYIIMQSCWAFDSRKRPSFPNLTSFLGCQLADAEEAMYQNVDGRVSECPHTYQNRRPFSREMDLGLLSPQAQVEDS
Text: as §1, §2, §3, §4

The structures appear in SMILES notation.

T2 sequence (P31749 whole entry): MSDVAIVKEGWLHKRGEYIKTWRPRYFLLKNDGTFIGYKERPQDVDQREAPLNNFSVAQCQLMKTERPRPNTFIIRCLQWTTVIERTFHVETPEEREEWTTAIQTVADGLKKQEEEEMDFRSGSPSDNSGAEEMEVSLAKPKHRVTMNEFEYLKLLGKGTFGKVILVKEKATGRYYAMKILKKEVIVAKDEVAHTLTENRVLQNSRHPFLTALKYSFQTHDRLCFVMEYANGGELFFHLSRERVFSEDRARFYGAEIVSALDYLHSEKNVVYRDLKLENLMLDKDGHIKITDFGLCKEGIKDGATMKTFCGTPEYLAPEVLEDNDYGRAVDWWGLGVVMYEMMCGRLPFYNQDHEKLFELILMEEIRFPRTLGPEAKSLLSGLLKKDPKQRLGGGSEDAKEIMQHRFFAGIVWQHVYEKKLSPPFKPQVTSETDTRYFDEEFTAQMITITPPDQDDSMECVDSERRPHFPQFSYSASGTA
Sequence of GSK-3-α (P49840 whole entry): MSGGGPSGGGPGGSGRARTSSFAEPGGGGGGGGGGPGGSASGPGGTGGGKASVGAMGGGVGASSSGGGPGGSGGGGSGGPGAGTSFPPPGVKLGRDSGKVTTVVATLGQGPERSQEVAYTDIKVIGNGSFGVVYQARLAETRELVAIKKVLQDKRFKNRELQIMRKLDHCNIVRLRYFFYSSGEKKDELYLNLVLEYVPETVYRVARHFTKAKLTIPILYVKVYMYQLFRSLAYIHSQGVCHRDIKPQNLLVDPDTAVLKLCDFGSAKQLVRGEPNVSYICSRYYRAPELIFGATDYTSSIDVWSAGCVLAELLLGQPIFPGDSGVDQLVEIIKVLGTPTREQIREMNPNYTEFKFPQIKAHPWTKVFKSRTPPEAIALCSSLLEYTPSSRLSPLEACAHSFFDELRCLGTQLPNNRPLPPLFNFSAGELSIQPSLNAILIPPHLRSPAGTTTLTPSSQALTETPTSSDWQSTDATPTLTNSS
Sequence of INSR (P06213 28-1382): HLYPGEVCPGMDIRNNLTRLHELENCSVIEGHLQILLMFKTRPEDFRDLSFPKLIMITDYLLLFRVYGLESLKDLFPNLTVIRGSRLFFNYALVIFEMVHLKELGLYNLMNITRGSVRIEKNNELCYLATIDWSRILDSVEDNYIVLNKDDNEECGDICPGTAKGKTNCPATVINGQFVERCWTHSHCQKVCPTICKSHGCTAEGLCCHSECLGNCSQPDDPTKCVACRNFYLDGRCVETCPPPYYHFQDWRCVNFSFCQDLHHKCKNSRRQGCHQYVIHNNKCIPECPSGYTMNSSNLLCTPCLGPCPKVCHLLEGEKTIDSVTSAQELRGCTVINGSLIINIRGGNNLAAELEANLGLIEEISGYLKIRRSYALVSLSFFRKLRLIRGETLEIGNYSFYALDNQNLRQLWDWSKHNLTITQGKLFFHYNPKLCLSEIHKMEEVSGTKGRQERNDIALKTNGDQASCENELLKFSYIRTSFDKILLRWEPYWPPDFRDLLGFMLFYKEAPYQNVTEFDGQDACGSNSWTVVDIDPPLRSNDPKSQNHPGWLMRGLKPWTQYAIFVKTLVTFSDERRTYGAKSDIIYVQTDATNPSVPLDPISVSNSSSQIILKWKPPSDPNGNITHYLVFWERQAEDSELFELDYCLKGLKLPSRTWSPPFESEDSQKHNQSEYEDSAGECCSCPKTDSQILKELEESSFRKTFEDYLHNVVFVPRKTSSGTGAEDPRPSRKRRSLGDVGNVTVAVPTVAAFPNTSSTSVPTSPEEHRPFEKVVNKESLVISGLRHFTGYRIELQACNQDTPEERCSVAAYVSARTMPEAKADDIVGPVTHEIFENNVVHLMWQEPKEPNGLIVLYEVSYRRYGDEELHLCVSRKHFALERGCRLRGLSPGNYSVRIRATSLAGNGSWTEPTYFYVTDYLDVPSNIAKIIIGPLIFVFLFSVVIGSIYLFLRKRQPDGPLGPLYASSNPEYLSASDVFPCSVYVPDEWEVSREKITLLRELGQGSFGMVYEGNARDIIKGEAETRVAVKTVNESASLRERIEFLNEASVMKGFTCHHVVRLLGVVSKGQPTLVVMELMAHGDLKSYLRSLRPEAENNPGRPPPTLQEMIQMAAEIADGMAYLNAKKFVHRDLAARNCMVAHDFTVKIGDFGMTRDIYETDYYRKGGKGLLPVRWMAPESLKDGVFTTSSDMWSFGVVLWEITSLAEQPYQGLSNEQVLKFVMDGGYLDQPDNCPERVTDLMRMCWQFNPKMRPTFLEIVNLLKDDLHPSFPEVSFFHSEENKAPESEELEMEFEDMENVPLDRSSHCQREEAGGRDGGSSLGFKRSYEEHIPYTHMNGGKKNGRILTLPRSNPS
Sequence of CHEK2 (O96017 whole entry): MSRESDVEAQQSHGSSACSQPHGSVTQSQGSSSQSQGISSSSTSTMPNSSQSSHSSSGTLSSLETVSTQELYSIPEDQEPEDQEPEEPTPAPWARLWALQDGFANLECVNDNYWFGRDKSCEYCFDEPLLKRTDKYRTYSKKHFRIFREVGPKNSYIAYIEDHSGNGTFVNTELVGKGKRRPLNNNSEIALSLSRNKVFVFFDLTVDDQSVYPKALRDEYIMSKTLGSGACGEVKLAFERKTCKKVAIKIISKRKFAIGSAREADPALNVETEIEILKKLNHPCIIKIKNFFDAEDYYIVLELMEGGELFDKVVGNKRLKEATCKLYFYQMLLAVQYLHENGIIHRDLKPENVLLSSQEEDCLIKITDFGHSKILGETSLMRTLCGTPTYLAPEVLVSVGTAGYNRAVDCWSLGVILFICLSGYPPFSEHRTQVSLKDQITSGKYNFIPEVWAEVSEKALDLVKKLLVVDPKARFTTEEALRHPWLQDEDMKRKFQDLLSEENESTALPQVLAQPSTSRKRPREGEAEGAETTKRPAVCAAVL
Sequence of MAPKAPK-2 (P49137 whole entry): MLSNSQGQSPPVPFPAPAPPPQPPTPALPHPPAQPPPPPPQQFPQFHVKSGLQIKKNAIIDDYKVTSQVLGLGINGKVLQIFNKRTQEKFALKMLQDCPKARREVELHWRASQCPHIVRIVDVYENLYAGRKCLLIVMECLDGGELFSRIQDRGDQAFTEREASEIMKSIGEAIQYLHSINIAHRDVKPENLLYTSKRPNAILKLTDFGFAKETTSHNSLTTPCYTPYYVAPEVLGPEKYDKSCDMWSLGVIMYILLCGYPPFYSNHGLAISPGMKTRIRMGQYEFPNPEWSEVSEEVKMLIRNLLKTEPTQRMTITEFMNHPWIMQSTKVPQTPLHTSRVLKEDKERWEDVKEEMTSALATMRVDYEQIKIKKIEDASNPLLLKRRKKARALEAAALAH
Sequence of KIT (P10721 26-976): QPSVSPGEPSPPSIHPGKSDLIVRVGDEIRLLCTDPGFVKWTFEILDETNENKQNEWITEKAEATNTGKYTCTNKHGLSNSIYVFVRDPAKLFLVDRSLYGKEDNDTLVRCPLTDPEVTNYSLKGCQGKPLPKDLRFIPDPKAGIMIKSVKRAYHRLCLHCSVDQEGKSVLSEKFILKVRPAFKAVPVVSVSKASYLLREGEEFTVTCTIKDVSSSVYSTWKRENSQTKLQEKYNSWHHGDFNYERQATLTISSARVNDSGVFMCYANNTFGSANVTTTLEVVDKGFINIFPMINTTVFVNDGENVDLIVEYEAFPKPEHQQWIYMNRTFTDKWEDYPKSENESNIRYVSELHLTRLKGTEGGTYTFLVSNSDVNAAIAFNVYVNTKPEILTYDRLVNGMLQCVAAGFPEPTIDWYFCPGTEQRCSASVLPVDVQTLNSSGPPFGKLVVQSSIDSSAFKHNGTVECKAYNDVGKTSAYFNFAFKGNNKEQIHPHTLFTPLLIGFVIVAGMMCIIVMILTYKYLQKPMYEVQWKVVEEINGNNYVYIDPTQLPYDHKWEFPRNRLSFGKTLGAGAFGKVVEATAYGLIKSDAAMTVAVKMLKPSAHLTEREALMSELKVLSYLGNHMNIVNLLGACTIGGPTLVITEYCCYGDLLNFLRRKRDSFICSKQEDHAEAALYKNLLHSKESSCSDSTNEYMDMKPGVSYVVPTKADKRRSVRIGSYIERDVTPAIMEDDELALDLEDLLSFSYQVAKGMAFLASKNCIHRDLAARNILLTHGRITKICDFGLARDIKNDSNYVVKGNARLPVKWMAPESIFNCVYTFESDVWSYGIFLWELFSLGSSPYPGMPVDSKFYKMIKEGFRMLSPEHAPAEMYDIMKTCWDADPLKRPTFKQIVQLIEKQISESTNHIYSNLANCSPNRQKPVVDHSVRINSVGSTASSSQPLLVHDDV

As for `COc1ccc(OC)c(-c2csc(N(Cc3ccccc3)C(=O)CCC(=O)O)n2)c1` [4-(benzyl(4-(2,5-dimethoxyphenyl)thiazol-2-yl)amino)-4-oxobutanoic acid], on AURORA-A, the Activity entry is “AURORA-A”.
On to `CCCCN(C(=O)CCC(=O)O)c1nc(-c2cc(OC)ccc2OC)cs1` [4-(butyl(4-(2,5-dimethoxyphenyl)thiazol-2-yl)amino)-4-oxobutanoic acid], for which the values for the Activity entry on GSK-3-α and on AURORA-A were “GSK-3-α” and “AURORA-A”, respectively.
For the compound `COc1ccc(-c2csc(N(CCCN3CCN(C)CC3)C(=O)c3ccco3)n2)cc1` [N-(4-(4-methoxyphenyl)thiazol-2-yl)-N-(3-(4-methylpiperazin-1-yl)propyl)furan-2-carboxamide], the Activity result at CHEK2 is recorded as “CHEK2”; at MAPKAPK-2, “MAPKAPK-2”; at AKT1, “AKT1”.
`O=C(c1cccs1)N(CCCN1CCOCC1)c1nc(-c2cccnc2)cs1` [N-(3-morpholinopropyl)-N-(4-(pyridin-3-yl)thiazol-2-yl)thiophene-2-carboxamide]: the values for the Activity entry at CDK2/cyclin E and at AKT1 were “CDK2/cyclin E” and “AKT1”, respectively.
Consider `COc1ccc(-c2csc(N(CCCN3CCOCC3)C(=O)c3cc(C)n(C)c3C)n2)cc1` [N-(4-(4-methoxyphenyl)thiazol-2-yl)-1,2,5-trimethyl-N-(3-morpholinopropyl)-1H-pyrrole-3-carboxamide], for which the Activity result at CDK2/cyclin E is “CDK2/cyclin E”.
In the case of `COc1ccc(-c2csc(N(CCCN3CCN(C)CC3)C(=O)c3cccs3)n2)cc1` [N-(4-(4-methoxyphenyl)thiazol-2-yl)-N-(3-(4-methylpiperazin-1-yl)propyl)thiophene-2-carboxamide], the figures for the Activity entry at INSR and on AKT1 were “INSR” and “AKT1”, respectively.
Consider `COc1ccc(-c2csc(N(CC(C)C)C(=O)CCC(=O)O)n2)cc1` [4-(isobutyl(4-(4-methoxyphenyl)thiazol-2-yl)amino)-4-oxobutanoic acid], for which the results for the Activity result at DYRK2 and at AURORA-A were “DYRK2” and “AURORA-A”, respectively.
Take `COc1ccc(OC)c(-c2csc(N(Cc3ccco3)C(=O)CCC(=O)O)n2)c1` [4-((4-(2,5-dimethoxyphenyl)thiazol-2-yl)(furan-2-ylmethyl)amino)-4-oxobutanoic acid]: the values for the Activity result on GSK-3-α and at AURORA-A were “GSK-3-α” and “AURORA-A”, respectively.
With `COc1ccc(-c2csc(N(CCCN3CCOCC3)C(=O)c3ccno3)n2)cc1` [N-(4-(4-methoxyphenyl)thiazol-2-yl)-N-(3-morpholinopropyl)isoxazole-5-carboxamide], the Activity result at AURORA-A is recorded as “AURORA-A”; at AKT1, “AKT1”.
Take `COc1ccc(-c2csc(N(CCCN3CCOCC3)C(=O)c3ccc([N+](=O)[O-])s3)n2)cc1` [N-(4-(4-methoxyphenyl)thiazol-2-yl)-N-(3-morpholinopropyl)-5-nitrothiophene-2-carboxamide]: the Activity result at KIT is “KIT”; at ZAP70, “ZAP70”; on FLT-3 it was “FLT-3”.
In the case of `COc1ccc(-c2csc(N(CCCN3CCOCC3)C(=O)c3ccc(C)cc3)n2)cc1` [N-(4-(4-methoxyphenyl)thiazol-2-yl)-4-methyl-N-(3-morpholinopropyl)benzamide], at FLT-3, the Activity entry is reported as “FLT-3”.
